# Reference: US20210392890A1, “COMPOSITIONS COMPRISING PYRIDINE CARBOXYLATE HERBICIDES AND PLANT GROWTH REGULATORS” (Corteva Agriscience LLC, priority 2018, published 2021)
# “And” between values parts separate entries of the source, which are not always exact repeats. Identical values can stand only once. Like-named read-outs stand apart in the source and are kept apart here.
# Columns and labels:
# Assay type in all cases: in vivo
# [1] = system: Capsella bursa-pastoris (shepherd's purse); test: Greenhouse postemergence herbicidal effect on CAPBP
# Description: (§1) Seeds of the desired test plant species were planted in a 90:10% v/v (volume/volume) mixture of PRO-MIX® BX (Premier Tech Horticulture, Quakertown, Pa., USA) and PROFILE® GREENS GRADE™ (Profile Products LLC, Buffalo Grove, Ill., USA) planting mixture, which typically has a pH of 5.2 to 6.2 and an organic matter content of at least 50 percent, in plastic pots with a surface area of 103.2 square centimeters (cm^2). In some aspects, to help ensure good germination and healthy plants, a fungicide treatment and/or other chemical or physical treatment was applied. The plants were grown for 7-36 days (d) in a greenhouse with an approximate 14-hour (h) photoperiod which was maintained at about 23° C. during the day and 22° C. during the night. Nutrients and water were added on a regular basis and supplemental lighting was provided with overhead metal halide 1000-Watt lamps as necessary. The plants were employed for testing when they reached the second or third true leaf stage.
# (§2) Emulsifiable concentrates of each of each pyridine carboxylate herbicide (Compound A or Compound B) were prepared at 100 grams acid equivalent per liter (g ae/L). The emulsifiable concentrates also included a safener, cloquintocet-mexyl, at 120 grams active ingredient per liter (g ai/L). […]
# (§3) The treated plants and control plants were placed in a greenhouse as described above and watered by sub-irrigation to prevent wash-off of the test compounds. After 20-22 d, the condition of the test plants as compared with that of the control plants was determined visually and scored on a scale of 0 to 100 percent where 0 corresponds to no injury and 100 corresponds to complete kill.
# Glycine max (soybean) = test: Greenhouse postemergence herbicidal effect on GLXMA
# Description: as §1
# (§4) Emulsifiable concentrates of each of each pyridine carboxylate herbicide (Compound A or Compound B) were prepared at 100 grams acid equivalent per liter (g ae/L). The emulsifiable concentrates also included a safener, cloquintocet-mexyl, at 120 grams active ingredient per liter (g ai/L). An aliquot of each emulsifiable concentrate was placed in a 25 mL glass vial and diluted with an aqueous mixture of 1.25% (v/v) ACTIROB® B esterified rapeseed oil (Bayer Crop Science, Research Triangle Park, N.C., USA) or MSO® Concentrate with LECI-TECH® methylated soybean oil (Loveland Products, Loveland, Colo., USA) to obtain concentrated stock solutions at the highest application rate for each herbicide, based upon a 12 milliliter (mL) application volume at a rate of 187 liters per hectare (L/ha). The concentrated stock solutions were further diluted with an aqueous mixture of 1.25% v/v ACTIROB® B or MSO® Concentrate with LECI-TECH® to obtain stock solutions at reduced application rates for each herbicide. Spray solutions of the herbicide combinations (Compound A or Compound B plus the PGR) were prepared by adding weighed amounts or aliquots of the PGR to the stock solutions of Compound A or Compound B to form 12-mL spray solutions in two-way combinations.
# (§5) The spray solutions were applied to the plant material with an overhead Mandel track sprayer equipped with 8002E nozzles calibrated to deliver 187 L/ha over an application area of 0.503 square meters (m^2) at a spray height of 18 inches (43 centimeters (cm)) above the average plant canopy. Control plants were sprayed in the same manner with the solvent blank. All pyridine carboxylate herbicide (component a) application rates are given as “g ae/ha” and all PGR (component b) application rates are given as “g ai/ha.”
# as §3
# [2] = system: Polygonum convolvulus (wild buckwheat); test: Greenhouse postemergence herbicidal effect on POLCO; conditions: for Herbicidal Effects (% visual injury) POLCO Obs: Ethephon 0 g/ha
# Description: as §1, §4, §5, §3
# [3] = system: Euphorbia heterophylla (poinsettia); test: Greenhouse postemergence herbicidal effect on EPHHL; conditions: for Herbicidal Effects (% visual injury) EPHHL Obs: Ethephon 0 g/ha
# Description: as §1, §4, §5, §3
# [4] = system: Anthemis arvensis (corn chamomile); test: Greenhouse postemergence herbicidal effect on ANTAR
# Description: as §1, §2, §3
# [5] = system: Helianthus annuus (common sunflower); test: Greenhouse postemergence herbicidal effect on HELAN; conditions: for Herbicidal Effects (% visual injury) HELAN Obs: Ethephon 0 g/ha
# Description: as §1, §4, §5, §3
# [6] = system: Cyperus esculentus (yellow nutsedge); test: Greenhouse postemergence herbicidal effect on CYPES; conditions: Ethephon 0 g/ha
# Description: as §1, §2
# as §3, with “kill. […]” for “kill.”
# [7] = system: Rumex obtusifolia (broadleaf dock); test: Greenhouse postemergence herbicidal effect on RUMOB; conditions: Ethephon 0 g/ha
# Description: as §1, §2
# as §3, with “kill. […]” for “kill.”
# [8] = system: Papaver rhoeas (herbicide-resistant poppy); test: Greenhouse postemergence herbicidal effect on PAPRH-RES
# Description: as §1, §2, §3
# [9] = system: Stellaria media (chickweed); test: Greenhouse postemergence herbicidal effect on STEME; conditions: for Herbicidal Effects (% visual injury) STEME Obs: Ethephon 0 g/ha
# Description: as §1, §4, §5, §3
# [10] = system: Matricaria inodora (scentless chamomile); test: Greenhouse postemergence herbicidal effect on MATIN
# Description: as §1, §2, §3
# [11] = system: Hordeum vulgare (winter barley)
# Description: as §1, §4, §5, §3
# [12] = system: Triticum aestivum (winter wheat)
# Description: as §1, §4, §5, §3
# [13] = system: Hordeum vulgare (spring barley)
# Description: as §1, §4, §5, §3
# [14] = system: Triticum aestivum (spring wheat)
# Description: as §1, §4, §5, §3
# [15] = system: Sorghum vulgare (grain sorghum); conditions: for Herbicidal Effects (% visual injury) SORVU Obs: Ethephon 0 g/ha
# Description: as §1, §4, §5, §3
# Zea mays (maize) = conditions: for Herbicidal Effects (% visual injury) ZEAMX Obs: Ethephon 0 g/ha
# Description: as §1, §4, §5, §3
compound,measurement,setting,value
"N#CCOC(=O)c1nc(-c2ccc3cc[nH]c3c2F)c(F)c(N)c1Cl [Compound A, cyanomethyl 4-amino-3-chloro-5-fluoro-6-(7-fluoro-1H-indol-6-yl)pyridine-2-carboxylate]",% visual injury Obs,[1]; herbicide 7.5 g ae/ha alone,45%
same,% visual injury Obs,[1]; herbicide 10 g ae/ha alone,55%
same,% visual injury Obs,[1]; herbicide 15 g ae/ha alone,55%
same,% visual injury Obs,Glycine max (soybean); herbicide 7.5 g ae/ha alone,100% and 80%
same,% visual injury Obs,Glycine max (soybean); herbicide 10 g ae/ha alone,99% and 90%
same,Herbicidal Effects (% visual injury) POLCO Obs,[2]; Compound A 7.5 g/ha,100%
same,Herbicidal Effects (% visual injury) POLCO Obs,[2]; Compound A 10 g/ha,100%
same,% visual injury Obs,[2]; herbicide 7.5 g ae/ha alone,68% and 83% and 65%
same,% visual injury Obs,[2]; herbicide 10 g ae/ha alone,70% and 93% and 78%
same,% visual injury Obs,[2]; herbicide 15 g ae/ha alone,85%
same,Herbicidal Effects (% visual injury) EPHHL Obs,[3]; Compound A 7.5 g/ha,100%
same,Herbicidal Effects (% visual injury) EPHHL Obs,[3]; Compound A 10 g/ha,100%
same,% visual injury Obs,[3]; herbicide 7.5 g ae/ha alone,91%
same,% visual injury Obs,[3]; herbicide 10 g ae/ha alone,83%
same,% visual injury Obs,[4]; herbicide 7.5 g ae/ha alone,68%
same,% visual injury Obs,[4]; herbicide 10 g ae/ha alone,70%
same,% visual injury Obs,[4]; herbicide 15 g ae/ha alone,88%
same,Herbicidal Effects (% visual injury) HELAN Obs,[5]; Compound A 7.5 g/ha,100%
same,Herbicidal Effects (% visual injury) HELAN Obs,[5]; Compound A 10 g/ha,93%
same,% visual injury Obs,[5]; herbicide 7.5 g ae/ha alone,83% and 90%
same,% visual injury Obs,[5]; herbicide 10 g ae/ha alone,88% and 89%
same,Herbicidal Effects (% visual injury) CYPES Obs,[6]; Compound A 7.5 g/ha,58%
same,Herbicidal Effects (% visual injury) CYPES Obs,[6]; Compound A 10 g/ha,38%
same,Herbicidal Effects (% visual injury) RUMOB Obs,[7]; Compound A 7.5 g/ha,8%
same,Herbicidal Effects (% visual injury) RUMOB Obs,[7]; Compound A 10 g/ha,18%
same,% visual injury Obs,[8]; herbicide 7.5 g ae/ha alone,96%
same,% visual injury Obs,[8]; herbicide 10 g ae/ha alone,98%
same,% visual injury Obs,[8]; herbicide 15 g ae/ha alone,100%
same,Herbicidal Effects (% visual injury) STEME Obs,[9]; Compound A 7.5 g/ha,100%
same,Herbicidal Effects (% visual injury) STEME Obs,[9]; Compound A 10 g/ha,100%
same,% visual injury Obs,[9]; herbicide 7.5 g ae/ha alone,89% and 85%
same,% visual injury Obs,[9]; herbicide 10 g ae/ha alone,90% and 88%
same,% visual injury Obs,[9]; herbicide 15 g ae/ha alone,89%
same,% visual injury Obs,[10]; herbicide 7.5 g ae/ha alone,55%
same,% visual injury Obs,[10]; herbicide 10 g ae/ha alone,60%
same,% visual injury Obs,[10]; herbicide 15 g ae/ha alone,83%
same,% visual injury Obs,[11]; herbicide 7.5 g ae/ha alone,0%
same,% visual injury Obs,[11]; herbicide 10 g ae/ha alone,0%
same,% visual injury Obs,[11]; herbicide 15 g ae/ha alone,0%
same,% visual injury Obs,[12]; herbicide 7.5 g ae/ha alone,0%
same,% visual injury Obs,[12]; herbicide 10 g ae/ha alone,0%
same,% visual injury Obs,[12]; herbicide 15 g ae/ha alone,0%
same,% visual injury Obs,[13]; herbicide 7.5 g ae/ha alone,0%
same,% visual injury Obs,[13]; herbicide 10 g ae/ha alone,0%
same,% visual injury Obs,[13]; herbicide 15 g ae/ha alone,0%
same,% visual injury Obs,[14]; herbicide 7.5 g ae/ha alone,0% and 5%
same,% visual injury Obs,[14]; herbicide 10 g ae/ha alone,0% and 3%
same,% visual injury Obs,[14]; herbicide 15 g ae/ha alone,0%
same,Herbicidal Effects (% visual injury) SORVU Obs,[15]; Compound A 7.5 g/ha,8%
same,Herbicidal Effects (% visual injury) SORVU Obs,[15]; Compound A 10 g/ha,8%
same,% visual injury Obs,[15]; herbicide 7.5 g ae/ha alone,0%
same,% visual injury Obs,[15]; herbicide 10 g ae/ha alone,0%
same,Herbicidal Effects (% visual injury) ZEAMX Obs,Zea mays (maize); Compound A 7.5 g/ha,0%
same,Herbicidal Effects (% visual injury) ZEAMX Obs,Zea mays (maize); Compound A 10 g/ha,5%
same,% visual injury Obs,Zea mays (maize); herbicide 7.5 g ae/ha alone,0%
same,% visual injury Obs,Zea mays (maize); herbicide 10 g ae/ha alone,0%
